Active and inactive are the calls of the source. The calls are words filed in the database; no cut-off is given here.
Experiments:
[1] = biological target: Sodium-dependent serotonin transporter (Homo sapiens) (UniProt P31645); settings: Compound concentration 10.0 uM
[2] = biological target: T1, Membrane-associated tyrosine- and threonine-specific cdc2-inhibitory kinase (Homo sapiens) (UniProt Q99640); assay: PKMYT1 SGC Tm panel (DSF); settings: for ΔTm: Compound concentration 10.0 uM
T1 sequence (whole entry): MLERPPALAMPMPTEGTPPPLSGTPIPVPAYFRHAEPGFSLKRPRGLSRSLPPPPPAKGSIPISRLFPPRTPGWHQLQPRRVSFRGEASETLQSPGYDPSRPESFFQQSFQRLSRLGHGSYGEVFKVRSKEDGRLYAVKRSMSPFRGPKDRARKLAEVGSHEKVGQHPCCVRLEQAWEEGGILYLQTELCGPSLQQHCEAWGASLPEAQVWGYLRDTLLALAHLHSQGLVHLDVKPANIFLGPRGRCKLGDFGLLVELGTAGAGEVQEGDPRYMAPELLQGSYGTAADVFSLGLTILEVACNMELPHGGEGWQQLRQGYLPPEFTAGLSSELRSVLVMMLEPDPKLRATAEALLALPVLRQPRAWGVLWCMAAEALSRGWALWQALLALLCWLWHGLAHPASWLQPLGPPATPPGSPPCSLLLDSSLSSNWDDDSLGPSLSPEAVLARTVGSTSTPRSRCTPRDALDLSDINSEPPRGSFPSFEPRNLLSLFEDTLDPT

[3] = biological target: G protein-coupled receptor kinase 5 (Homo sapiens) (UniProt P34947); assay: GPRK5 SGC Tm panel (DSF); settings: for ΔTm: Compound concentration 10.0 uM
[4] = biological target: High affinity cGMP-specific 3',5'-cyclic phosphodiesterase 9A (Homo sapiens, UniProt O76083); assay: 3H-cAMP and 3H-cGMP Scintillation Proximity Assay (PDE9A)
[5] = biological target: GABA-A receptor; anion channel (Rattus norvegicus) (UniProt O09028+P15431+P18506+P18508+P19969+P20236+P23574+P23576+P28471+P28473+P30191+P62813+P63079+P63138+Q91ZM7+Q9ES14); settings: Compound concentration 10.0 uM
[6] = biological target: T2, Cyclin-G-associated kinase (Homo sapiens) (UniProt O14976); assay: GAK SGC Tm panel (DSF); settings: for ΔTm: Compound concentration 10.0 uM
T2 sequence (whole entry): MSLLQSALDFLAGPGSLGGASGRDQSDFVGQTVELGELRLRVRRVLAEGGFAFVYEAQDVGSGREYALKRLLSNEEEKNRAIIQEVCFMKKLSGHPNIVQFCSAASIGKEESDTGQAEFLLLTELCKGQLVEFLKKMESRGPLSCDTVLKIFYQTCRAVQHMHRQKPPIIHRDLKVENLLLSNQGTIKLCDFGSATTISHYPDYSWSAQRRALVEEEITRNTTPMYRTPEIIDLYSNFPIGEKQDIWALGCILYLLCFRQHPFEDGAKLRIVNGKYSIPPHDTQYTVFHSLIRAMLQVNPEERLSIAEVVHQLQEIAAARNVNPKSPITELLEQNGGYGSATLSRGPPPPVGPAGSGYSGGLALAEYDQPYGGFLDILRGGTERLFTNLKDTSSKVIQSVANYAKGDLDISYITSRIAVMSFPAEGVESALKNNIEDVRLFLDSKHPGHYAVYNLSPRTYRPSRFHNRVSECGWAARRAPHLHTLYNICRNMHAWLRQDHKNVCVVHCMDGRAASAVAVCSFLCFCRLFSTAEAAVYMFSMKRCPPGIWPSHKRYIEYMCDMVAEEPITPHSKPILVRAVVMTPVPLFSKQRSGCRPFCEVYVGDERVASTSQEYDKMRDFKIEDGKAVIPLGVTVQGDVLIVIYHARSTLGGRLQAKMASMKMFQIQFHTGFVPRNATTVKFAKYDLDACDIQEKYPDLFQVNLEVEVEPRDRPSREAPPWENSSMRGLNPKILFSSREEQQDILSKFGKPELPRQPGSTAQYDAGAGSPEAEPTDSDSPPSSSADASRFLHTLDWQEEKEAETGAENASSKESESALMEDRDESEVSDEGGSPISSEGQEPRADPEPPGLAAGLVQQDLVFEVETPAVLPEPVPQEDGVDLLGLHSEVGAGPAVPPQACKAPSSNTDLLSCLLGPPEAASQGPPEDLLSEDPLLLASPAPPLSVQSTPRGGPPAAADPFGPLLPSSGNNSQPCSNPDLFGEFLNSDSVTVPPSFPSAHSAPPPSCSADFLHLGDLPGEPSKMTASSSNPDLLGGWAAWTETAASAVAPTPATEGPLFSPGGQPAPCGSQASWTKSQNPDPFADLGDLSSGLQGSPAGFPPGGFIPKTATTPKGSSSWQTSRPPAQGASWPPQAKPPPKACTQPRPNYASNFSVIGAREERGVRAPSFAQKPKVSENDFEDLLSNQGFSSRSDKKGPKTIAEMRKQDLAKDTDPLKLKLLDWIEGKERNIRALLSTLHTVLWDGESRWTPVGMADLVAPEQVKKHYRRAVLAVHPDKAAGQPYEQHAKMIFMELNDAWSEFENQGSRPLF

[7] = biological target: Serine/threonine-protein kinase WNK1 (Homo sapiens) (UniProt Q9H4A3); assay: WNK1 SGC Tm panel (DSF); settings: for ΔTm: Compound concentration 10.0 uM
[8] = biological target: T3, Serine/threonine-protein kinase Nek2 (Homo sapiens) (UniProt P51955); assay: NEK2 SGC Tm panel (DSF); settings: for ΔTm: Compound concentration 10.0 uM
T3 sequence (whole entry): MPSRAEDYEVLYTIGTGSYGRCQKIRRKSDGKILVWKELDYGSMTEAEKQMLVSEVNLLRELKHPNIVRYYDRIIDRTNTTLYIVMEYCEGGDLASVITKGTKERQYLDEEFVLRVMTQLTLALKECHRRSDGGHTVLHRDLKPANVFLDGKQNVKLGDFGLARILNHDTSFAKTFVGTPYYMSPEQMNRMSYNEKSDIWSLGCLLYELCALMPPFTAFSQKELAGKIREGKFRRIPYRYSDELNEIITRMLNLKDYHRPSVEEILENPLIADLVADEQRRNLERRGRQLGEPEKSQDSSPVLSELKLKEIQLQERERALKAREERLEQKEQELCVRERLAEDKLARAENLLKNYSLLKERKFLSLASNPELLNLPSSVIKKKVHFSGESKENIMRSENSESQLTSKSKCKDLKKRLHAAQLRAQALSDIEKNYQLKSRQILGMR

Chain of Sodium-dependent serotonin transporter (Homo sapiens) (P31645 whole entry, looked up): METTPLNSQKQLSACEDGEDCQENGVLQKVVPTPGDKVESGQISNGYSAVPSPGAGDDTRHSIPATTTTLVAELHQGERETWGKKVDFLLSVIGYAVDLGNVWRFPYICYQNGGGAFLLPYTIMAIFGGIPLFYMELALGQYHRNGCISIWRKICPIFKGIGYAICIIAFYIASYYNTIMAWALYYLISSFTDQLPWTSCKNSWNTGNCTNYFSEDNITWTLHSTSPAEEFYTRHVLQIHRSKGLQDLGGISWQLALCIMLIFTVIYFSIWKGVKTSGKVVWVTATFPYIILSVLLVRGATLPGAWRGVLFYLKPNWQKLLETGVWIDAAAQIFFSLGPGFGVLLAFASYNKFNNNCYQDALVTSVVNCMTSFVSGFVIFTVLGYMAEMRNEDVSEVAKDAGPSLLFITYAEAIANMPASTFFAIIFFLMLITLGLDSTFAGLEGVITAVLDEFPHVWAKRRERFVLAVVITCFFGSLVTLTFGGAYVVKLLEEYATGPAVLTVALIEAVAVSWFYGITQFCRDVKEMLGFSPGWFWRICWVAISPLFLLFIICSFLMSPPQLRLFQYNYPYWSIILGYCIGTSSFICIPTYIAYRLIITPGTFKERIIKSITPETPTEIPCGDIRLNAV
Chain of Serine/threonine-protein kinase WNK1 (Homo sapiens) (Q9H4A3 whole entry, looked up): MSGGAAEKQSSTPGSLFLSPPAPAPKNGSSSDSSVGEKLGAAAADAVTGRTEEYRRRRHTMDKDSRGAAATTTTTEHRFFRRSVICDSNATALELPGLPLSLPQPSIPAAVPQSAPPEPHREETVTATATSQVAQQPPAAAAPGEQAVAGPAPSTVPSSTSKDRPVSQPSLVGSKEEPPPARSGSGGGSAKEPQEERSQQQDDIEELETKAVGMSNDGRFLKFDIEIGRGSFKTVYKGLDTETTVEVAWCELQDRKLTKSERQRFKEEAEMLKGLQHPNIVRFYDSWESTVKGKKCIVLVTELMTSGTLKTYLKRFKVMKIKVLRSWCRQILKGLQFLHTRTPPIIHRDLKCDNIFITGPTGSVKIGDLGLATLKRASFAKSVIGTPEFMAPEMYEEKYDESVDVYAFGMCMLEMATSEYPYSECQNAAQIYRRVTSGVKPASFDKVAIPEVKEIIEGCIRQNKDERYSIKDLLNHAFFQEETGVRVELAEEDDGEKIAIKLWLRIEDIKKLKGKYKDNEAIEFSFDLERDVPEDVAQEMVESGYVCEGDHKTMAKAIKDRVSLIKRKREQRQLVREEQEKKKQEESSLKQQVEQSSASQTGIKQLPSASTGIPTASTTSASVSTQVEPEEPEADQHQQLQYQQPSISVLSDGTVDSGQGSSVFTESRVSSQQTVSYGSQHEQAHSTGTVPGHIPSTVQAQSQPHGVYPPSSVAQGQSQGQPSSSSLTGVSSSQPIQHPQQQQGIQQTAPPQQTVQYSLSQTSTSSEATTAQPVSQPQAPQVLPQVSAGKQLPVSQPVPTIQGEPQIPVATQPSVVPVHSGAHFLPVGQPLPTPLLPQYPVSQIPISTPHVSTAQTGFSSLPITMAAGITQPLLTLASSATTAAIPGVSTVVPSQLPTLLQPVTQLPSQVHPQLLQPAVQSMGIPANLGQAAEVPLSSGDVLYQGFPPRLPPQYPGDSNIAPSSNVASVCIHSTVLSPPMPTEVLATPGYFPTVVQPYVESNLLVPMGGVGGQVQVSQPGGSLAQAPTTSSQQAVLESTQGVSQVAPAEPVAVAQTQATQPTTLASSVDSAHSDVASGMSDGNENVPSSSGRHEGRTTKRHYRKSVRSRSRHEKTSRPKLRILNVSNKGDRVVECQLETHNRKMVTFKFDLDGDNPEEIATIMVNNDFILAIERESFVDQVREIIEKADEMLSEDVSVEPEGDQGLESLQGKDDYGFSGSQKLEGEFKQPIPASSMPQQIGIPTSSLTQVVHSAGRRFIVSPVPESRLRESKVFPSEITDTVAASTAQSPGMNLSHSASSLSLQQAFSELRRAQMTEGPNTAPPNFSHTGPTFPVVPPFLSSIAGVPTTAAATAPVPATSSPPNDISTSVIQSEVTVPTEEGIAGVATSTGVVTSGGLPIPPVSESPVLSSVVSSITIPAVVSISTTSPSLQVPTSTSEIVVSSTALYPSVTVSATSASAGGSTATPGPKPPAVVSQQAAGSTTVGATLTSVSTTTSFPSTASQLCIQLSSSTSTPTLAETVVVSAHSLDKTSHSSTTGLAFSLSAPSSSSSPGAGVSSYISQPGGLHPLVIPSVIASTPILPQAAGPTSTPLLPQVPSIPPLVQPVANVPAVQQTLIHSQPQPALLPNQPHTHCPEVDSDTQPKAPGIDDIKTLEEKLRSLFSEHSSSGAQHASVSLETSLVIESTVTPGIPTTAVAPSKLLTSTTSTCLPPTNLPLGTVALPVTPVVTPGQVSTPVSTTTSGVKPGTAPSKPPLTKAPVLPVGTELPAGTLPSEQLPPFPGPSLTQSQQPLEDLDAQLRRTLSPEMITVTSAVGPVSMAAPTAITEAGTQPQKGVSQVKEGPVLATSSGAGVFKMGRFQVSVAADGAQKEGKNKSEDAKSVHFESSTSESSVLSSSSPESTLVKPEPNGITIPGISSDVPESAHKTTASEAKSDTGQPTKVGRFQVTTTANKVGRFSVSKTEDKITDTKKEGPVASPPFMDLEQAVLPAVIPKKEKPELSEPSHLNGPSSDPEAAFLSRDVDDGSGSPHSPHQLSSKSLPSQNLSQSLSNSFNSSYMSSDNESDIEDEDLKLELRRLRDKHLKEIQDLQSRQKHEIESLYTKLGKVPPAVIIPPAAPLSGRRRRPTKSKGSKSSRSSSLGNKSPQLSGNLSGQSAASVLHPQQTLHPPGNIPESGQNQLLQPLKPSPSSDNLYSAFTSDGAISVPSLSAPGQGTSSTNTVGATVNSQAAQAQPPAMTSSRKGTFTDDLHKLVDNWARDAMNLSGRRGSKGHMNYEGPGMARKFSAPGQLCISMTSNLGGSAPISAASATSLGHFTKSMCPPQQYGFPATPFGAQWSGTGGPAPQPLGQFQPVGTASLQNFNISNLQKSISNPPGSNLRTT
Chain of G protein-coupled receptor kinase 5 (Homo sapiens) (P34947 whole entry, looked up): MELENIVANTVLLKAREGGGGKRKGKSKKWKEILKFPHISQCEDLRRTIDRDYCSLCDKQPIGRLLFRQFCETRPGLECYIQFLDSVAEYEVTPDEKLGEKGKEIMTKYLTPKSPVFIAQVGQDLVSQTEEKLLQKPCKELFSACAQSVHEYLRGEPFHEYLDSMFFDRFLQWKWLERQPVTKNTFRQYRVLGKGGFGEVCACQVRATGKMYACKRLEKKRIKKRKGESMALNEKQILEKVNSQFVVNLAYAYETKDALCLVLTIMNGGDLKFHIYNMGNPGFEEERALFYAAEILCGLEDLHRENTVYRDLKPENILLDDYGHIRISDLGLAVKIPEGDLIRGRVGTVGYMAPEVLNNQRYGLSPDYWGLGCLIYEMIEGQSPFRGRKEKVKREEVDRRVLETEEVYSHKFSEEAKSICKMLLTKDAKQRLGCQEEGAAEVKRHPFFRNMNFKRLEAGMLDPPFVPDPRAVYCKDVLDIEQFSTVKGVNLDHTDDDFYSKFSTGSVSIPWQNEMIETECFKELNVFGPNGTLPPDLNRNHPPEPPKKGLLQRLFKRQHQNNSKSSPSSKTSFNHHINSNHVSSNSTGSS
Chain of High affinity cGMP-specific 3',5'-cyclic phosphodiesterase 9A (O76083 whole entry): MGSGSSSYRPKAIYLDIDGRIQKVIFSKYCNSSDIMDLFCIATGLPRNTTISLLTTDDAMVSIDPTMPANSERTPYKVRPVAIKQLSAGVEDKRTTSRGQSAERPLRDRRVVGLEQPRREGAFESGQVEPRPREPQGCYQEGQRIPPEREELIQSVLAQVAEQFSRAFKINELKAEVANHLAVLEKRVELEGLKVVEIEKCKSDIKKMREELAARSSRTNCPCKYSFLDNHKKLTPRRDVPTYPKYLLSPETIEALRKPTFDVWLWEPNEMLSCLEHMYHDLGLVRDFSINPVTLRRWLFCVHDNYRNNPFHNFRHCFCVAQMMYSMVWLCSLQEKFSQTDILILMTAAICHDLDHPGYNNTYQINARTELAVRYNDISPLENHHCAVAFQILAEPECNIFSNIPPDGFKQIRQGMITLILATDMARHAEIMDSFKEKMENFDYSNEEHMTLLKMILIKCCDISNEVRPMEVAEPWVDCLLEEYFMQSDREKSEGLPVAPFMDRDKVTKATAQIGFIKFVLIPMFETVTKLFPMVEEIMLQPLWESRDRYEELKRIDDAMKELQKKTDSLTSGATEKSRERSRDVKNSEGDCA

## CCC[C@H]1CNCc2c1[nH]c(=O)c(C#N)c2N1CCC2(CC1)CC2
[1]
  inhibition: 6.23%
[2]
  delta Tm Staurosporine positive control: 0.0474
  ΔTm: -0.47
[3]
  delta Tm Staurosporine positive control: 7.03
  ΔTm: 0.0527
[4]
  IC50: 0.015 µM (active)
[5]
  inhibition: 3.16%
[6]
  delta Tm Staurosporine positive control: 9.89
  ΔTm: -1.15
[7]
  delta Tm Staurosporine positive control: 2.2
  ΔTm: -0.456
[8]
  delta Tm Staurosporine positive control: 4.25
  ΔTm: -1.22

## CCC[C@@H]1CNCc2c1[nH]c(=O)c(C#N)c2N1CCC2(CC1)CC2
[1]
  inhibition: -1.15%
[2]
  delta Tm Staurosporine positive control: 0.0474
  ΔTm: -0.384
[3]
  delta Tm Staurosporine positive control: 7.03
  ΔTm: 0.00192
[4]
  IC50: > 10 µM (not active)
[5]
  inhibition: -5.59%
[6]
  delta Tm Staurosporine positive control: 9.89
  ΔTm: -1.01
[7]
  delta Tm Staurosporine positive control: 2.2
  ΔTm: -0.301
[8]
  delta Tm Staurosporine positive control: 4.25
  ΔTm: -1.52

Source: ChEMBL document CHEMBL5303765, “Data for DCP probe BAY-7081” (2023)
